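All cell lines were grown in 96-well plates and treated with compound for 48 hours. Here, GI50 denotes the concentration required for 50% inhibition of growth. At the TGI there is no net growth.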
Columns and labels:
Assay in all cases: NCI anticancer screen, dose series, 48 h
A549 NSCLC = test system: A549 NSCLC
ACHN renal = test system: ACHN renal
EKVX NSCLC = test system: EKVX NSCLC
HCT-116 colon = test system: HCT-116 colon
HT29 colon = test system: HT29 colon
K-562 leukemia = test system: K-562 leukemia
NCI-H226 lung = test system: NCI-H226 lung
NCI-H23 lung = test system: NCI-H23 lung
NCI-H460 lung = test system: NCI-H460 lung
NCI-H522 lung = test system: NCI-H522 lung

Row | SMILES | TGI (A549 NSCLC) [µM] | TGI (ACHN renal) [µM] | TGI (EKVX NSCLC) [µM] | TGI (HCT-116 colon) [µM] | TGI (HT29 colon) [µM] | TGI (K-562 leukemia) [µM] | TGI (NCI-H226 lung) [µM] | TGI (NCI-H23 lung) [µM] | TGI (NCI-H460 lung) [µM] | TGI (NCI-H522 lung) [µM] | GI50 (A549 NSCLC) [µM] | GI50 (ACHN renal) [µM] | GI50 (EKVX NSCLC) [µM] | GI50 (HCT-116 colon) [µM] | GI50 (HT29 colon) [µM] | GI50 (K-562 leukemia) [µM] | GI50 (NCI-H226 lung) [µM] | GI50 (NCI-H23 lung) [µM] | GI50 (NCI-H460 lung) [µM] | GI50 (NCI-H522 lung) [µM]
1 | CSC(=S)N(C)NC(=O)c1cccc(C(=O)NN(C)C(=S)SC)n1 | 89 | > 100 | > 100 | > 100 | > 100 | > 100 | 81.5 | > 100 | > 100 | 40.1 | – | – | – | – | – | – | – | – | – | –
2 | Clc1ccccc1-c1nc2ccccc2[nH]1 | > 100 | > 100 | > 100 | > 100 | > 100 | > 100 | > 100 | > 100 | > 100 | > 100 | > 100 | > 100 | > 100 | > 100 | > 100 | 80.2 | > 100 | > 100 | > 100 | > 100
3 | O=C1OCC2=C1C(c1cccc(F)c1)c1cc3c(cc1N2CCO)OCCO3 (stereo not given) | > 50 | > 50 | > 50 | > 50 | > 50 | > 50 | > 50 | > 50 | > 50 | 2.58 | 0.32 | 0.386 | 0.306 | 0.204 | 0.178 | 0.122 | 3.18 | 0.35 | 0.187 | 0.0418
4 | COc1cc(NCC(C#N)C#N)ccc1N=Nc1ccc([N+](=O)[O-])cc1 | > 100 | > 100 | > 100 | > 100 | > 100 | > 100 | > 100 | > 100 | > 100 | > 100 | – | – | – | – | – | – | – | – | – | –
5 | O=C1CC(c2ccccc2)Cc2nc3ccc(Cl)cc3cc21 (stereo not given) | > 100 | > 100 | > 100 | > 49.5 | > 100 | > 100 | > 23.6 | > 100 | > 34.5 | 19 | 0.451 | 0.261 | 0.732 | 0.0472 | 0.246 | 0.0859 | 0.795 | 0.562 | 0.343 | 0.194
6 | COc1ccc(N2CCN(CC(=O)N3CCN(c4nnc(-c5ccccc5)c(-c5ccccc5)n4)CC3)CC2)cc1 | > 100 | > 100 | > 100 | 38.6 | 11.3 | > 100 | > 100 | > 100 | > 100 | > 73.2 | 16.2 | 7.94 | 4.47 | 3.96 | 3.19 | 5.6 | > 100 | 6.06 | 5.96 | 19.1
7 | O=C(Cc1ccccc1)Nc1nnc(CCSCCc2nnc(NC(=O)Cc3ccccc3)s2)s1 | > 100 | > 100 | > 100 | > 100 | > 100 | > 100 | 97.4 | > 100 | > 100 | > 100 | 0.541 | > 100 | > 100 | 59.8 | > 100 | 1.34 | 29.9 | 28.8 | 14.5 | 8.41
8 | CCCNC(=O)c1cc2ccccc2cc1C(=O)OC | > 100 | > 100 | > 100 | > 100 | > 100 | > 100 | > 100 | > 100 | > 100 | > 100 | – | – | – | – | – | – | – | – | – | –
9 | CC(=O)NNC(=O)c1nn(-c2ccc(Cl)cc2)cc1OC(C)=O | > 100 | > 66.6 | > 100 | > 100 | > 93.4 | > 100 | > 100 | 97.2 | > 100 | > 100 | 18.8 | 15.3 | 23.7 | 14.6 | 42.4 | 32.9 | 22.1 | 22.2 | 5.76 | 35.5
10 | CSc1nc2c(nc(N)n2C2OCC(O)C(O)C2O)c(=O)[nH]1 (stereo not given) | > 100 | > 100 | > 100 | > 100 | > 100 | > 100 | > 100 | > 100 | > 100 | > 100 | – | – | – | – | – | – | – | – | – | –
11 | O=C1C2C(C(=O)[N]1[Hg][c]1ccccc1)C1(Cl)C(Cl)=C(Cl)C2(Cl)C1(Cl)Cl (stereo not given) | 25 | 3.07 | 25.2 | 2.87 | 4.25 | 11.4 | 4.18 | 3.32 | 12.4 | 0.531 | 9.84 | 1.69 | 6.91 | 1.54 | 1.81 | 1.36 | 1.59 | 1.49 | 2.61 | 0.203
12 | CNC1=C(C)C(=O)C(C)=C(C(C)(C)CC(=O)n2cc(F)c(=O)[nH]c2=O)C1=O | > 100 | > 100 | > 100 | > 100 | > 100 | > 100 | > 100 | > 100 | > 100 | > 100 | – | – | – | – | – | – | – | – | – | –
13 | OC(COc1ccc(Cl)cc1Cl)CN1CCCC1 (stereo not given) | > 100 | > 100 | > 100 | > 100 | 69.9 | > 100 | > 100 | > 100 | > 100 | > 100 | – | – | – | – | – | – | – | – | – | –
14 | COc1ccc(C(=O)Nc2ncc(Cc3ccc(F)cc3)s2)cc1 | > 100 | > 95 | > 100 | > 100 | > 100 | > 100 | > 100 | > 100 | > 32.6 | > 100 | 0.0678 | 0.0664 | 0.383 | 0.0519 | 0.0438 | 0.0377 | 0.0829 | 0.368 | 0.0408 | 0.0874

Reference: PubChem BioAssay (NCI)
